PubChem BioAssay (NCI)
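Five compound concentrations were applied to cells in 96-well plates for 48 hours; endpoints were derived by simple linear interpolation of the resulting dose-response curve. Here, GI50 denotes the concentration required for 50% inhibition of growth. At the TGI there is no net growth.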

Columns and labels:
Assay in all cases: NCI tumour cell line growth inhibition, 48 h
KM12 colon = tested on: KM12 colon
SK-MEL-5 melanoma = tested on: SK-MEL-5 melanoma
HCT-116 colon = tested on: HCT-116 colon
HOP-62 NSCLC = tested on: HOP-62 NSCLC
HCC-2998 colon = tested on: HCC-2998 colon
CCRF-CEM leukemia = tested on: CCRF-CEM leukemia
HL-60(TB) leukemia = tested on: HL-60(TB) leukemia
HOP-92 NSCLC = tested on: HOP-92 NSCLC
MDA-MB-231 breast = tested on: MDA-MB-231 breast
HS 578T breast = tested on: HS 578T breast

| SMILES | TGI (KM12 colon) [µM] | TGI (SK-MEL-5 melanoma) [µM] | TGI (HCT-116 colon) [µM] | TGI (HOP-62 NSCLC) [µM] | TGI (HCC-2998 colon) [µM] | TGI (CCRF-CEM leukemia) [µM] | TGI (HL-60(TB) leukemia) [µM] | TGI (HOP-92 NSCLC) [µM] | GI50 (KM12 colon) [µM] | GI50 (SK-MEL-5 melanoma) [µM] | GI50 (HCT-116 colon) [µM] | GI50 (HOP-62 NSCLC) [µM] | GI50 (MDA-MB-231 breast) [µM] | TGI (MDA-MB-231 breast) [µM] | GI50 (HCC-2998 colon) [µM] | GI50 (CCRF-CEM leukemia) [µM] | GI50 (HL-60(TB) leukemia) [µM] | GI50 (HOP-92 NSCLC) [µM] | TGI (HS 578T breast) [µM] |
| --- | --- | --- | --- | --- | --- | --- | --- | --- | --- | --- | --- | --- | --- | --- | --- | --- | --- | --- | --- |
| COC(=O)c1c2c(cc3c1CC1(Cc4cc5c(c(C(C)=O)c4C1)CCC5)C3)CCC2 (configuration not stated) | > 100 | > 100 | > 100 | > 100 | > 100 | > 100 | 86.4 | > 100 |  |  |  |  |  |  |  |  |  |  |  |
| COc1ccc(CCc2cc(OC)cc(OC)c2)cc1 | > 100 | > 87 | > 100 | > 100 | 51.2 | 96.8 | > 84.5 | > 100 |  |  |  |  |  |  |  |  |  |  |  |
| Cc1cc(N(CCC#N)CCC#N)ccc1N=Nc1ccc(Br)cc1 | > 100 | 27.8 | > 100 | 20.9 | > 79.3 | > 31.6 | > 100 |  |  |  |  |  |  |  |  |  |  |  |  |
| CN1CCc2c1nc(-c1ccc(Cl)cc1)c1c2N(C)CC1 | 45.7 | 26.6 | 18.9 | 27.7 | 65 | 55.2 | 47.4 |  |  |  |  |  |  |  |  |  |  |  |  |
| CC1=NN(C(=O)c2ccc(Cl)cc2)C(=O)/C1=C/c1ccccc1O | > 100 | > 100 | > 100 | > 100 | > 100 | > 100 | > 100 | > 100 |  |  |  |  |  |  |  |  |  |  |  |
| CC(C)OP(=O)(OC(C)C)/C(N)=N/Nc1ccc([N+](=O)[O-])cc1 | > 100 | > 100 | > 100 | > 100 | > 100 | > 100 | > 100 | > 100 |  |  |  |  |  |  |  |  |  |  |  |
| COC(=O)CC(NC(=O)OCc1ccccc1)C(C(=O)OCc1ccccc1)C(C)(OC)OC (configuration not stated) |  | 26.7 | > 100 | > 100 | > 100 | 65.4 | 90.9 |  |  |  |  |  |  |  |  |  |  |  |  |
| C1=C2CCCC3=Cc4ccccc4OC23Oc2ccccc21 | 56.7 | 24.2 | > 100 | > 100 | 60.7 | 25.9 | > 100 |  | 3.61 | 3.37 | 4.35 | 3.8 | 4.23 | 45.5 | 10.3 | 3.47 | 3.24 |  |  |
| N.N.N.N.N.O=[N+]([O-])[O-].[Co+3].[O-][Cl+3]([O-])([O-])[O-] | > 100 | > 100 | > 100 | > 100 | > 100 | > 100 | > 100 | > 100 | > 100 | > 100 | > 100 | > 100 |  |  | > 100 | > 100 | > 100 | > 100 |  |
| CC(C)(C)C(=CS(=O)/N=C/c1ccccc1)C(C)(C)C (configuration not stated) | > 100 | 73 | > 100 | > 100 |  | 49.8 |  | 51.2 |  |  |  |  |  |  |  |  |  |  |  |
| O=C1/C(=C/c2ccccc2)CN(C(=O)CCN2CCCC2)C/C1=C\c1ccccc1 | 1.82 | 3.48 | 0.674 | 16 | 3.22 | 1.06 | 1.18 | 14.8 |  |  |  |  |  | 3.78 |  |  |  |  |  |
| CC(=O)OCC(=O)[C@@]12OC(C)(C)O[C@@H]1C[C@H]1[C@@H]3CC(C=O)=C4C=C(OCCCl)CC[C@]4(C)[C@@]3(F)[C@@H](O)C[C@@]12C | > 100 |  | 27.4 | 51.9 | 29.5 | > 100 | 97.1 | 90.2 |  |  |  |  |  |  |  |  |  |  |  |
| O=c1ncccn1C1OC(CO)C(O)C1O (configuration not stated) | > 100 |  | > 100 |  | > 100 | > 100 |  | > 100 |  |  |  |  |  |  |  |  |  |  |  |
| CC(=O)O[C@]1(C)OC(=O)[C@@H](CC(C)C)N1[N+](=O)[O-] | > 100 | > 100 | > 100 | > 100 | > 100 | > 100 | > 100 |  |  |  |  |  |  |  |  |  |  |  |  |
| COc1ccc(/C(Cl)=C/c2cc(OC)ccc2OC)cc1 |  | > 100 | > 100 | > 100 | > 100 | > 100 | 81.8 | > 100 |  |  |  |  |  |  |  |  |  |  |  |
| COC(=O)C1=C(C(=O)OC)C2(C)C=CC1O2 (configuration not stated) |  | 32.8 | 22.3 | > 100 | 29.8 |  |  | 24.4 |  |  |  |  |  | 31 |  |  |  |  | 72 |
| C#Cc1c(C)c(/C=C/C(C)=C/C(=O)OC)n(C)c1C | > 100 |  | > 100 | > 100 | > 100 | > 100 | 79.4 | 85.1 |  |  |  |  |  |  |  |  |  |  |  |
| O=S(=O)(NCn1ccc2ccccc21)c1ccccc1 | > 100 | > 100 | > 100 | > 100 | > 100 | > 100 | 41 | > 100 |  |  |  |  |  |  |  |  |  |  |  |
